Test results published in patent publication US20240174728A1, “A USE OF A POLYPEPTIDE COMPOUND IN THE PREPARATION OF DRUGS FOR PREVENTING OR TREATING INFLAMMATORY BOWEL DISEASES AND RELATED INTESTINAL FIBROSIS” (Shenzhen Turier Biotech Co., Ltd., priority 2021, published 2024).
Starred links: 1 amine or outer side, 2 acyl side, 3 side chain; linkers in the order of their positions; H or OH if unused. Non-standard residues stand in square brackets, D forms with d. Groups on a side chain read outwards from the residue. Primed or numbered codes have the meaning given here. No end group written: not given here. *: point of attachment. C20 diacid = O=C(O)CCCCCCCCCCCCCCCCCCC(=O)*; γGlu = O=C(O)[C@H](CCC(=O)[*:2])N[*:1]; Iva = CC[C@](C)(N)C(=O)O; PEG2′ = not defined here; Aib = CC(C)(N)C(=O)O

What was measured:
[1] = system: DSS induced acute intestinal fibrosis model of mouse; assay: DSS induced acute intestinal fibrosis model of mouse (Example 2); type: in vivo, Balb/c mice; settings: 3% DSS Day 1-7, compared with model group; for blue staining area of colon tissues, area ratio of blue collagen fibers to colon tissue in Masson staining (FIG. 4B): #P≤0.05; for content of serum IL-6 (FIG. 7) / content of serum MMP-12 (FIG. 7) / collagenous fiber of colon tissues, Masson stained slice (FIG. 4A) / colon Ly-6g+ cells (neutrophile granulocyte infiltration), immunohistochemical staining (FIG. 6) / colon mucous layer α-SMA protein expression, immunohistochemical staining (FIG. 5): 120 μg/kg s.c. once/day; for content of serum IL-6 (FIG. 7) / content of serum MMP-12 (FIG. 7): 9th day serum, ##P≤0.01
Description: The DSS in this example is purchased from MP Biomedicals (CAS No.: 9011-18-1), and the positive control compound 6-thioguanine (6-TG) is a compound based on prior art and is purchased from Shanghai Aladdin Biochemical Technology Co., Ltd. (CAS No.: 154-42-7).
(§1) After 7 days of adaptive feeding, 114 Balb/c mice of 6-8 weeks age (purchased from Guangdong Medical Laboratory Animal Center, with weight approx. 16-20 g) are subjected to the experiment. Then randomly put the mice into 19 groups, with 6 mice in each group. The groups are normal group, model group, 6-TG group and polypeptide compound groups 1-16.
Model the 19 groups of mice and administer the drug to them for 8 days. In the 8 days, the normal group is given normal drinking water and is given subcutaneous injection of PBS once every day. From Day 1 to Day 7, the model group drinks 3% DSS and is given subcutaneous injection of PBS once every day. On Day 8, 3% DSS is replaced with normal drinking water and subcutaneous injection of PBS is given once. From Day 1 to Day 7, the 6-TG group drinks 3% DSS and is given 2 mg/kg 6-TG by the means of gavage once every day. On Day 8, 3% DSS is replaced with normal drinking water and 2 mg/kg 6-TG is given by the means of gavage once. From Day 1 to Day 7, the polypeptide compound groups 1-16 drink 3% DSS and are given subcutaneous injection of 120 μg/kg polypeptide compounds 1-16 once every day. On Day 8, 3% DSS is replaced with normal drinking water and subcutaneous injection of 120 μg/kg polypeptide compounds 1-16 is given once.
In the drug administration period, the randomly selected polypeptide compound groups 3, 8, 11, 12, 13 and 14 and the normal group, model group and 6-TG group are used for testing, and the body weight, feces consistency and feces OB of the mice are recorded every day. The GraphPad Prism 8.3.0 software is used to plot the data into a diagram. Feces OB is measured by the benzidine method.
On the 9th day, all mice are killed. The serums and colon tissues of the mice are collected. The colon and cecum of the mice are removed together. The colon length is measured. The GraphPad Prism 8.3.0 software is used to plot the data into a diagram.
The serums of the mice from the randomly selected polypeptide compound groups 3, 8, 11, 12, 13 and 14 of the present invention and the normal group and model group are used for cytokine test.
(§2) The colons of the mice from the randomly selected polypeptide compound groups 3, 8, 11, 12, 13 and 14 and the normal group, model group and 6-TG group in the present invention are taken. Approx. 5 mm of intestinal segment is taken from the distal end of each colon and is fixed in 10% formalin. The specimens are fixed, dehydrated, wrapped in paraffin and sliced (5 μm). Then tissue HE staining, Masson staining, α-SMA α-SMA protein immunohistochemical staining and Ly-6g protein immunohistochemical staining are completed.

[2] = system: DSS induced chronic intestinal fibrosis model of mouse; assay: DSS induced chronic intestinal fibrosis model of mouse (Example 3, three cycles); type: in vivo, Balb/c mice; settings: 2% DSS 5 days then water 2 weeks, 3 cycles, 120 μg/kg s.c. once/day, compared with model group; for blue staining area of colon tissues, area ratio of blue collagen fibers to colon tissue in Masson staining (FIG. 11B): #P≤0.05, ##P≤0.01; for content of serum IL-6 (FIG. 13) / content of serum MMP-8 (FIG. 13): serum at end of three cycles
Description: as §1
In the whole process, the normal group is given normal drinking water and is given subcutaneous injection PBS once every day. The model group is first given 2% DSS for 5 days and then given normal drinking water for 2 weeks. This is 1 cycle. The cycle is done 3 times. Subcutaneous injection of PBS is given once every day. The 6-TG group is first given 2% DSS for 5 days and then given normal drinking water for 2 weeks. This is 1 cycle. The cycle is done 3 times. 2 mg/kg 6-TG is given by the means of gavage once every day. The polypeptide compound groups 1-16 are first given 2% DSS for 5 days and then given normal drinking water for 2 weeks. This is 1 cycle. The cycle is done 3 times. Subcutaneous injection of 120 μg/kg polypeptide compounds 1-16 is given once every day.
During the administration period, the polypeptide compound groups 3, 8, 11, 12, 13 and 14 and the normal group, model group and 6-TG group are randomly selected, and the body weight, feces consistency and feces OB of the mice are recorded every day. The GraphPad Prism 8.3.0 software is used to plot the data into a diagram.
After completion of the 3rd cycle, the mice are dissected. The serums and colon tissues of the mice are collected. The colon and cecum are removed together. The colon length is measured. The GraphPad Prism 8.3.0 software is used to plot the data into a diagram.
The serums of the mice from the randomly selected polypeptide compound groups 3, 8, 11, 12, 13 and 14 and the normal group and model group of the present invention are used for cytokine test.
as §2, with “normal” for “normal group, model”, “model” for “6-TG”, “Masson” for “Masson staining, α-SMA α-SMA protein immunohistochemical”, “Fibronectin” for “Ly-6g”

[3] = polypeptide 120 μg/kg s.c. or 6-TG 2 mg/kg p.o. once/day, Day 1 to Day 8
[4] = polypeptide 120 μg/kg s.c. or 6-TG 2 mg/kg p.o. once/day

## Nc1nc2nc[nH]c2c(=S)[nH]1 [Compound 6-TG, 6-thioguanine, reference compound]
[1]; [3]
  body weight (daily conditions, FIG. 2): decrease the body weight
  loose feces and hematochezia conditions (feces consistency and feces OB scores, FIG. 2): noticeably improve the loose feces and hematochezia conditions
[1]; [4]
  colon tissue morphology, HE stained slice (FIG. 3): relatively improved
  blue staining area of colon tissues, area ratio of blue collagen fibers to colon tissue in Masson staining (FIG. 4B): not improved

## His-(D-Ser)-Gln-Gly-Thr-Phe-Thr-Ser-Asp-Lys(Gly-Gly-Ser-Gly-Ser-Gly-γGlu-CO(CH2)18-COOH)-Ser-Lys-Tyr-Leu-Glu-Aib-Lys-Ala-Ala-Gln-Asp-Phe-Val-Glu-Trp-Leu-Lys-Ala-Gly-Gly-Pro-Ser-Ser-Gly-Ala-Pro-Pro-Pro-Ser (HXQGTFTSDKSKYLEXKAAQDFVEWLKAGGPSSGAPPPS; D-Ser, Aib, γGlu-C20 diacid lipidation; Compound 13; (2)..(2) X=D-Ser; (10)..(10) A side chain of Lys is linked to -Gly-Gly-Ser-Gly-Ser-Gly-AGlu-CO(CH2)18-COOH; (16)..(16) X=Aib)
[2]
  collagenous fiber of colon tissues, Masson stained slice (FIG. 11A): noticeably decrease
  colon mucous layer Fibronectin protein expression, immunohistochemical staining (FIG. 12): clearly decreased
  colon tissue morphology, HE stained slice (FIG. 10): become intact
  blue staining area of colon tissues, area ratio of blue collagen fibers to colon tissue in Masson staining (FIG. 11B): noticeably decrease
  content of serum IL-6 (FIG. 13): clearly decreases
  content of serum MMP-8 (FIG. 13): clearly decreases
[1]
  content of serum IL-6 (FIG. 7): clearly decreases
  content of serum MMP-12 (FIG. 7): clearly decreases
  collagenous fiber of colon tissues, Masson stained slice (FIG. 4A): noticeably decrease
  colon Ly-6g+ cells (neutrophile granulocyte infiltration), immunohistochemical staining (FIG. 6): clearly decrease
  colon mucous layer α-SMA protein expression, immunohistochemical staining (FIG. 5): clearly decreased
[1]; [4]
  colon tissue morphology, HE stained slice (FIG. 3): become intact
  blue staining area of colon tissues, area ratio of blue collagen fibers to colon tissue in Masson staining (FIG. 4B): noticeably decrease

## His-(D-Ser)-Gln-Gly-Thr-Phe-Thr-Ser-Asp-Lys(Gly-Gly-Ser-Gly-Ser-Gly-γGlu-CO(CH2)18-COOH)-Ser-Lys-Tyr-Leu-Glu-Aib-Lys-Ala-Ala-Gln-Asp-Phe-Val-Glu-Trp-Leu-Lys-Ala-Gly-Gly-Pro-Ser-Ser-Gly-Ala-Pro-Pro-Pro-Ser-NH2 (HXQGTFTSDKSKYLEXKAAQDFVEWLKAGGPSSGAPPPS; D-Ser, Aib, γGlu-C20 diacid lipidation, C-amide; Compound 14; (2)..(2) X=D-Ser; (10)..(10) A side chain of Lys is linked to -Gly-Gly-Ser-Gly-Ser-Gly-AGlu-CO(CH2)18-COOH; (16)..(16) X=Aib)
[2]
  collagenous fiber of colon tissues, Masson stained slice (FIG. 11A): noticeably decrease
  colon mucous layer Fibronectin protein expression, immunohistochemical staining (FIG. 12): clearly decreased
  colon tissue morphology, HE stained slice (FIG. 10): become intact
  blue staining area of colon tissues, area ratio of blue collagen fibers to colon tissue in Masson staining (FIG. 11B): noticeably decrease
  content of serum IL-6 (FIG. 13): clearly decreases
  content of serum MMP-8 (FIG. 13): clearly decreases
[1]
  content of serum IL-6 (FIG. 7): clearly decreases
  content of serum MMP-12 (FIG. 7): clearly decreases
  collagenous fiber of colon tissues, Masson stained slice (FIG. 4A): noticeably decrease
  colon Ly-6g+ cells (neutrophile granulocyte infiltration), immunohistochemical staining (FIG. 6): clearly decrease
  colon mucous layer α-SMA protein expression, immunohistochemical staining (FIG. 5): clearly decreased
[1]; [4]
  colon tissue morphology, HE stained slice (FIG. 3): become intact
  blue staining area of colon tissues, area ratio of blue collagen fibers to colon tissue in Masson staining (FIG. 4B): noticeably decrease

## His-(D-Ser)-Gln-Gly-Thr-Phe-Thr-Ser-Asp-Lys(PEG2-PEG2-γGlu-CO(CH2)18CO2H)-Ser-Lys-Tyr-Leu-Asp-Glu-Arg-Ala-Ala-Gln-Asp-Phe-Iva-Gln-Trp-Leu-Leu-Asp-Gly-Gly-Pro-Ser-Ser-Gly-Aib-Pro-Pro-Pro-Ser-NH2 (H[dS]QGTFTSDK([PEG2′-PEG2′-γGlu-C20 diacid])SKYLDERAAQDF[Iva]QWLLDGGPSSG[Aib]PPPS-NH2) [Compound 12]
[2]
  collagenous fiber of colon tissues, Masson stained slice (FIG. 11A): noticeably decrease
  colon mucous layer Fibronectin protein expression, immunohistochemical staining (FIG. 12): clearly decreased
  colon tissue morphology, HE stained slice (FIG. 10): become intact
  blue staining area of colon tissues, area ratio of blue collagen fibers to colon tissue in Masson staining (FIG. 11B): noticeably decrease
  content of serum IL-6 (FIG. 13): clearly decreases
  content of serum MMP-8 (FIG. 13): clearly decreases
[1]
  content of serum IL-6 (FIG. 7): clearly decreases
  content of serum MMP-12 (FIG. 7): clearly decreases
  collagenous fiber of colon tissues, Masson stained slice (FIG. 4A): noticeably decrease
  colon Ly-6g+ cells (neutrophile granulocyte infiltration), immunohistochemical staining (FIG. 6): clearly decrease
  colon mucous layer α-SMA protein expression, immunohistochemical staining (FIG. 5): clearly decreased
[1]; [4]
  colon tissue morphology, HE stained slice (FIG. 3): become intact
  blue staining area of colon tissues, area ratio of blue collagen fibers to colon tissue in Masson staining (FIG. 4B): noticeably decrease

## His-(D-Ser)-Gln-Gly-Thr-Phe-Thr-Ser-Asp-Lys(PEG2-PEG2-γGlu-CO(CH2)18CO2H)-Ser-Lys-Tyr-Leu-Glu-Aib-Lys-Ala-Ala-Gln-Asp-Phe-Val-Glu-Trp-Leu-Lys-Ala-Gly-Gly-Pro-Ser-Ser-Gly-Ala-Pro-Pro-Pro-Ser-NH2 (H[dS]QGTFTSDK([PEG2′-PEG2′-γGlu-C20 diacid])SKYLE[Aib]KAAQDFVEWLKAGGPSSGAPPPS-NH2) [Compound 3]
[2]
  collagenous fiber of colon tissues, Masson stained slice (FIG. 11A): noticeably decrease
  colon mucous layer Fibronectin protein expression, immunohistochemical staining (FIG. 12): clearly decreased
  colon tissue morphology, HE stained slice (FIG. 10): become intact
  blue staining area of colon tissues, area ratio of blue collagen fibers to colon tissue in Masson staining (FIG. 11B): noticeably decrease
  content of serum IL-6 (FIG. 13): clearly decreases
  content of serum MMP-8 (FIG. 13): clearly decreases
[1]
  content of serum IL-6 (FIG. 7): clearly decreases
  content of serum MMP-12 (FIG. 7): clearly decreases
  collagenous fiber of colon tissues, Masson stained slice (FIG. 4A): noticeably decrease
  colon Ly-6g+ cells (neutrophile granulocyte infiltration), immunohistochemical staining (FIG. 6): clearly decrease
  colon mucous layer α-SMA protein expression, immunohistochemical staining (FIG. 5): clearly decreased
[1]; [4]
  colon tissue morphology, HE stained slice (FIG. 3): become intact
  blue staining area of colon tissues, area ratio of blue collagen fibers to colon tissue in Masson staining (FIG. 4B): noticeably decrease
